# Results as given in patent US8471005B2 (Cephalon, Inc., priority 2008, dated 2013).
# Target: T1, ALK (Homo sapiens, UniProt Q9UM73)
# T1 construct: host or cells: baculovirus expression system
# Experiment: ALK Kinase Assay (ELISA/TRF, PLC-γ substrate)
# Assay type: biochemical
# Conditions: ALK Kinase Inhibition; read-out: ALK Potency
# Protocol: Briefly, each 96-well plate was coated with […] of 10 μg/mL substrate (phospholipase C-γ) in Tris-buffered saline (TBS). […] The reaction was initiated by adding enzyme (30 ng/ml ALK) and was allowed to proceed at 37° C. for 15 minutes. Detection of the phosphorylated product was performed by adding 100 μl/well of Eu—N1 labeled PT66 antibody (Perkin Elmer # AD0041).
# Data analysis was performed using ActivityBase (IDBS, Guilford, UK). IC50 values were calculated by plotting percent inhibition versus log10 of the concentration of compound and fitting to the nonlinear regression sigmoidal dose-response (variable slope) equation in XLFit (IDBS, Guilford, UK).
# T1 sequence (Q9UM73 19-1620): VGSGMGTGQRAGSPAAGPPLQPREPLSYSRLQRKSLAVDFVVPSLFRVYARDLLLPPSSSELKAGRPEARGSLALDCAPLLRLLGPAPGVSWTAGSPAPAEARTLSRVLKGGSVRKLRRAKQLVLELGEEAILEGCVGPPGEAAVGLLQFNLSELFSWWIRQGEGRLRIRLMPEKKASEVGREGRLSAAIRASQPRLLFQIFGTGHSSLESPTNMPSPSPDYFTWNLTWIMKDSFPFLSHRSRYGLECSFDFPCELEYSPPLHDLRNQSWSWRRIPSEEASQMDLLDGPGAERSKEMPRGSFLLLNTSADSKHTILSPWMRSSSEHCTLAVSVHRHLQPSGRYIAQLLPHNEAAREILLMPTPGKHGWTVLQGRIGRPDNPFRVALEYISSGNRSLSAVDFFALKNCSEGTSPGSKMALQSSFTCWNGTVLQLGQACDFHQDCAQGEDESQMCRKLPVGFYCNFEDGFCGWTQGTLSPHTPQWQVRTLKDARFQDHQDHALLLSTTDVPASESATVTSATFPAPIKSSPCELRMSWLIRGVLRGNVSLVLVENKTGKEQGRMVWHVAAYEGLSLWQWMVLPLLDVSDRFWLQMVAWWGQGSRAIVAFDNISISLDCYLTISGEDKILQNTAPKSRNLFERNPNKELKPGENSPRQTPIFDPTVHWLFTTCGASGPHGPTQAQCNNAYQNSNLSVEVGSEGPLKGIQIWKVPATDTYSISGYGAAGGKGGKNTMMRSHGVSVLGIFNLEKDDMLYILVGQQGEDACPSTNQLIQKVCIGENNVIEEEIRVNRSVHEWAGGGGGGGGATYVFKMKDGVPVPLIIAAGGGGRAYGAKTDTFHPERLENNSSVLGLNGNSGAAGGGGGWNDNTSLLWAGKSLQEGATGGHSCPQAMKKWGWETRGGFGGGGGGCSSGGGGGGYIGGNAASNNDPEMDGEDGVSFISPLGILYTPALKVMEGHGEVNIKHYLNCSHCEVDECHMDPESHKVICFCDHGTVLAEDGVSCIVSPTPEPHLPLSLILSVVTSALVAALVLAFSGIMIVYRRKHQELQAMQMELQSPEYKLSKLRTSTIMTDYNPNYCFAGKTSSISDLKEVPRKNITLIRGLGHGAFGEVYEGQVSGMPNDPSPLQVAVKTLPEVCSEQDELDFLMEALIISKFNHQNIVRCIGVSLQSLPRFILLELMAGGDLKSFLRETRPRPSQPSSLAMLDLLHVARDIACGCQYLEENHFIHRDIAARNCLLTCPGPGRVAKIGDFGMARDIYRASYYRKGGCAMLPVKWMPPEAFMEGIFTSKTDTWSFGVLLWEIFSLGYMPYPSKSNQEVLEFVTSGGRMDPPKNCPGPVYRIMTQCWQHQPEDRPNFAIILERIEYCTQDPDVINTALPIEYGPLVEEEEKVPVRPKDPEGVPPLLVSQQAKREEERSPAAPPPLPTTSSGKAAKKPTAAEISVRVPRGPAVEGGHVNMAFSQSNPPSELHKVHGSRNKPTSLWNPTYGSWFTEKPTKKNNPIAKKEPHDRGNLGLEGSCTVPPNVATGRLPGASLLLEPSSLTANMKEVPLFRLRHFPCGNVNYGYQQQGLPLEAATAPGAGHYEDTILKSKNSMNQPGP
row,Compound,IC50
1,"COc1ccccc1-c1ccc2cnc(Nc3ccc(N4CCN(C[C@H](C)O)CC4)c(F)c3)nn12 [Example 1417, (S)-1-(4-{2-Fluoro-4-[7-(2-methoxy-phenyl)-pyrrolo[2,1-f][1,2,4]triazin-2-ylamino]-phenyl}-piperazin-1-yl)-propan-2-ol]",< 100 nM
2,"COc1cc(N2CCC(N3CCOCC3)CC2)ccc1Nc1ncc2ccc(-c3cccc(NS(C)(=O)=O)c3)n2n1 [Example 1446, N-(3-{2-[2-Methoxy-4-(4-morpholin-4-yl-piperidin-1-yl)-phenylamino]-pyrrolo[2,1-f][1,2,4]triazin-7-yl}-phenyl)-methanesulfonamide]",< 100 nM
3,"CN1CCN(c2ccc(Nc3ncc4ccc(-c5ccccc5N(C)S(C)(=O)=O)n4n3)cc2Cl)CC1 [Example 1424, N-(2-{2-[3-Chloro-4-(4-methyl-piperazin-1-yl)-phenylamino]-pyrrolo[2,1-f][1,2,4]triazin-7-yl}-phenyl)-N-methyl-methanesulfonamide]",< 100 nM
4,"COc1ccccc1-c1ccc2cnc(Nc3ccc(N4CCN(C)CC4)c(Cl)c3)nn12 [Example 1418, [3-Chloro-4-(4-methyl-piperazin-1-yl)-phenyl]-[7-(2-methoxy-phenyl)-pyrrolo[2,1-f][1,2,4]triazin-2-yl]-amine]",< 100 nM
5,"COc1cc(N2CCCC(N3CCNCC3)C2)ccc1Nc1ncc2ccc(-c3ccccc3OC)n2n1 (stereo not drawn) [Example 1448, [7-(2-Methoxy-phenyl)-pyrrolo[2,1-f][1,2,4]triazin-2-yl]-[2-methoxy-4-(3-piperazin-1-yl-piperidin-1-yl)-phenyl]-amine]",< 100 nM
6,"COc1ccccc1-c1ccc2cnc(Nc3ccc(N4CCN(C)CC4)cc3)nn12 [Example 20, [7-(2-Methoxy-phenyl)-pyrrolo[2,1-f][1,2,4]triazin-2-yl]-[4-(4-methyl-piperazin-1-1)-phenyl]-amine]",< 100 nM
7,"CN1CCN(c2ccc(Nc3ncc4ccc(-c5ccccc5N(C)S(C)(=O)=O)n4n3)cc2F)CC1 [Example 1421, N-(2-{2-[3-Fluoro-4-(4-methyl-piperazin-1-yl)-phenylamino]-pyrrolo[2,1-f][1,2,4]triazin-7-yl}-phenyl)-N-methyl-methanesulfonamide]",< 100 nM
8,"COc1cc(N2CCC(N3CCOCC3)CC2)ccc1Nc1ncc2ccc(-c3cccc(N(C)S(C)(=O)=O)c3)n2n1 [Example 1449, N-(3-{2-[2-Methoxy-4-(4-morpholin-4-yl-piperidin-1-yl)-phenylamino]-pyrrolo[2,1-f][1,2,4]triazin-7-yl}-phenyl)-N-methyl-methanesulfonamide]",< 100 nM
9,"CN1CCN(c2ccc(Nc3ncc4ccc(-c5cccc(S(=O)(=O)NC(C)(C)C)c5)n4n3)cc2Cl)CC1 [Example 1411, N-tert-Butyl-3-{2-[3-chloro-4-(4-methyl-piperazin-1-yl)-phenylamino]-pyrrolo[2,1-f][1,2,4]triazin-7-yl}-benzenesulfonamide]",< 100 nM
10,"CCOc1ccccc1-c1ccc2cnc(Nc3ccc(N4CCC(N5CCOCC5)CC4)cc3OC)nn12 [Example 1447, [7-(2-Ethoxy-phenyl)-pyrrolo[2,1-f][1,2,4]triazin-2-yl]-[2-methoxy-4-(4-morpholin-4-yl-piperidin-1-yl)-phenyl]-amine]",< 100 nM
11,"COc1ccc(-c2ccc3cnc(Nc4ccc(N5CCN(C)CC5)c(Cl)c4)nn23)cn1 [Example 1419, [3-Chloro-4-(4-methyl-piperazin-1-yl)-phenyl]-[7-(6-methoxy-pyridin-3-yl)-pyrrolo[2,1-f][1,2,4]triazin-2-yl]-amine]",100 to 1000 nM
12,"C[C@H](O)CN1CCN(c2ccc(Nc3ncc4ccc(-c5ccccc5N(C)S(C)(=O)=O)n4n3)cc2F)CC1 [Example 1423, N-[2-(2-{3-Fluoro-4-[4-((S)-2-hydroxy-propyl)-piperazin-1-yl]-phenylamino}-pyrrolo[2,1-f][1,2,4]triazin-7-yl)-phenyl]-N-methyl-methanesulfonamide]",< 100 nM
13,"COc1cc(N2CCCC(N3CCN(CCO)CC3)C2)ccc1Nc1ncc2ccc(-c3ccccc3OC)n2n1 (stereo not drawn) [Example 1443, 2-[4-(1-{3-Methoxy-4-[7-(2-methoxy-phenyl)-pyrrolo[2,1-f][1,2,4]triazin-2-ylamino]-phenyl}-piperidin-3-yl)-piperazin-1-yl]-ethanol]",< 100 nM
14,"C[C@H](O)CN1CCN(c2ccc(Nc3ncc4ccc(-c5cccc(S(=O)(=O)NC(C)(C)C)c5)n4n3)cc2F)CC1 [Example 1412, N-tert-Butyl-3-(2-{3-fluoro-4-[4-((S)-2-hydroxy-propyl)-piperazin-1-yl]-phenylamino}-pyrrolo[2,1-f][1,2,4]triazin-7-yl)-benzenesulfonamide]",< 100 nM
15,"CN1CCN(c2ccc(Nc3ncc4ccc(-c5cccc(S(=O)(=O)NC(C)(C)C)c5)n4n3)cc2)CC1 [Example 23, N-tert-Butyl-3-{2-[4-(4-methyl-piperazin-1-yl)-phenylamino]-pyrrolo[2,1-f][1,2,4]triazin-7-yl}-benzenesulfonamide]",< 100 nM
16,"COc1ccccc1-c1ccc2cnc(Nc3ccc(N4CCN(C)CC4)c(F)c3)nn12 [Example 90, [3-Fluoro-4-(4-methyl-piperazin-1-yl)-phenyl]-[7-(2-methoxy-phenyl)-pyrrolo[2,1-f][1,2,4]triazin-2-yl]-amine]",< 100 nM

# Same assay, conditions: ALK kinase inhibition, 1 μM ATP; read-out: ALK Potency
row,Compound,IC50
1,"CN1CCN(c2ccc(Nc3ncc4ccc(-c5ccccc5N(C)S(C)(=O)=O)n4n3)c(Cl)c2)CC1 [Example 507, N-(2-{2-[2-Chloro-4-(4-methyl-piperazin-1-yl)-phenylamino]-pyrrolo[2,1-f][1,2,4]triazin-7-yl}-phenyl)-N-methyl-methanesulfonamide]",< 100 nM
2,"CN1CCN(c2ccc(Nc3ncc4ccc(-c5ccccc5N(C)S(C)(=O)=O)n4n3)cc2)CC1 [Example 627, N-Methyl-N-(2-{2-[4-(4-methyl-piperazin-1-yl)phenylamino]pyrrolo[2,1-f][1,2,4]triazin-7-yl}phenyl)methanesulfonamide]",< 100 nM
3,"CS(=O)(=O)N1Cc2cccc(-c3ccc4cnc(Nc5ccc(C6CCN(CC(N)=O)CC6)cc5)nn34)c2C1 [Example 579, 2-(4-{4-[7-(2-Methanesulfonyl-2,3-dihydro-1H-isoindol-4-yl)-pyrrolo[2,1-f][1,2,4]triazin-2-ylamino]-phenyl}-piperidin-1-yl)-acetamide]",1000 to 10000 nM
4,"COc1cc2c(cc1Nc1ncc3ccc(-c4ccccc4OC)n3n1)CCCC(N1CCOCC1)C2 (stereo not drawn) [Example 992, (3-Methoxy-6-morpholin-4-yl-6,7,8,9-tetrahydro-5H-benzocyclohepten-2-yl)-[7-(2-methoxy-phenyl)-pyrrolo[2,1-f][1,2,4]triazin-2-yl]-amine]",< 100 nM
5,"N-tert-Butyl-3-{2-[3-fluoro-4-(4-methyl-piperazin-1-yl)-phenylamino]-pyrrolo[2,1-f][1,2,4]triazin-7-yl}-benzenesulfonamide [Example 1216]",100 to 1000 nM
6,"COc1cc(N2CCN(C[C@H](O)CO)CC2)ccc1Nc1ncc2ccc(-c3ccccc3OC)n2n1 [Example 760, (S)-3-(4-{3-Methoxy-4-[7-(2-methoxy-phenyl)-pyrrolo[2,1-f][1,2,4]triazin-2-ylamino]-phenyl}-piperazin-1-yl)-propane-1,2-diol]",< 100 nM
7,"COc1cc(N2CCN(C[C@@H](O)CO)CC2)ccc1Nc1ncc2ccc(-c3ccccc3OC)n2n1 [Example 758, (R)-3-(4-{3-Methoxy-4-[7-(2-methoxy-phenyl)-pyrrolo[2,1-f][1,2,4]triazin-2-ylamino]-phenyl}-piperazin-1-yl)-propane-1,2-diol]",< 100 nM
8,"COc1cc(N2CCC(N3CCN(C(C)=O)CC3)CC2)ccc1Nc1ncc2ccc(-c3ccccc3OC)n2n1 [Example 536, 1-[4-(1-{3-Methoxy-4-[7-(2-methoxy-phenyl)-pyrrolo[2,1-f][1,2,4]triazin-2-ylamino]-phenyl}-piperidin-4-yl)-piperazin-1-yl]-ethanone]",< 100 nM
9,"Cc1cc2cnc(Nc3ccc(N4CCN(C)CC4)cc3)nn2c1-c1cccc(CCC#N)c1 [Example 1160, 3-(3-{6-Methyl-2-[4-(4-methyl-piperazin-1-yl)-phenylamino]-pyrrolo[2,1-f][1,2,4]triazin-7-yl}-phenyl)-propionitrile]",< 100 nM
10,"Cc1cc(-c2ccccc2N(C)S(C)(=O)=O)n2nc(Nc3ccc(C4CCN(CC(N)=O)CC4)cc3)ncc12 [Example 1261, 2-[4-(4-{7-[2-(Methanesulfonyl-methyl-amino)-phenyl]-5-methyl-pyrrolo[2,1-f][1,2,4]triazin-2-ylamino}-phenyl)-piperidin-1-yl]-acetamide]",< 100 nM
11,"COc1cc(N2CCCN(C[C@H](O)CO)CC2)ccc1Nc1ncc2ccc(-c3ccccc3OC)n2n1 [Example 767, (S)-3-(4-{3-Methoxy-4-[7-(2-methoxy-phenyl)-pyrrolo[2,1-f][1,2,4]triazin-2-ylamino]-phenyl}-[1,4]diazepan-1-yl)-propane-1,2-diol]",< 100 nM
12,"COc1ccc(C2CCN(C)CC2)cc1Nc1ncc2ccc(-c3ccccc3OC)n2n1 [Example 770, [2-Methoxy-5-(1-methyl-piperidin-4-yl)-phenyl]-[7-(2-methoxy-phenyl)-pyrrolo[2,1-f][1,2,4]triazin-2-yl]-amine]",< 100 nM
13,"COc1cc(N2CCC(N3CCNCC3)CC2)ccc1Nc1ncc2ccc(-c3ccccc3OC)n2n1 [Example 537, [7-(2-Methoxy-phenyl)-pyrrolo[2,1-f][1,2,4]triazin-2-yl]-[2-methoxy-4-(4-piperazin-1-yl-piperidin-1-yl)-phenyl]-amine]",< 100 nM
14,"COc1cc(N2CCN(C[C@H](O)CO)CC2)ccc1Nc1ncc2ccc(-c3cc(Cl)ccc3OC)n2n1 [Example 759, (S)-3-(4-{4-[7-(5-Chloro-2-methoxy-phenyl)-pyrrolo[2,1-f][1,2,4]triazin-2-ylamino]-3-methoxy-phenyl}-piperazin-1-yl)-propane-1,2-diol]",< 100 nM
